The target of assay [1] is T1, Large conductance calcium-activated potassium channel (Bos taurus) (UniProt Q28204+Q28067). Briefly: Inhibition of large conductance calcium-activated potassium channel in bovine smooth muscle cells at 10 uM. The format is functional, cell-based.
Assay [2] addresses T1, Large conductance calcium-activated potassium channel (Bos taurus). Briefly: Inhibition of large conductance calcium-activated potassium channel in bovine smooth muscle cells at 30 uM. It counts as functional, cell-based.

What is called inhibition is the percentage by which the read-out fell short of the control.

The structures appear in SMILES notation.

Take `Clc1ccc([C@@]2(Cn3ccnc3)OC[C@H](COc3ccc(N4CCCCC4)cc3)O2)c(Cl)c1`: the inhibition in assay [1] is 80%.
As for `Cc1ccc(S(=O)(=O)OC[C@H]2CO[C@](Cn3ccnc3)(c3ccc(Cl)cc3Cl)O2)cc1`, in assay [2], the inhibition is 2%.
`Clc1ccc([C@@]2(Cn3ccnc3)OC[C@H](COc3ccc(Br)cc3)O2)c(Cl)c1`: in assay [2], the inhibition came to 95%.
With `O=C(OC[C@H]1CO[C@](Cn2ccnc2)(c2ccc(Cl)cc2Cl)O1)c1ccccc1`, the inhibition in assay [2] amounted to 40%.
For the compound `Clc1ccc([C@@]2(Cn3ccnc3)OC[C@H](COc3ccccc3)O2)c(Cl)c1`, the inhibition in assay [2] was 73%.
